Measurements as given in ChEMBL document CHEMBL1821558, “Toward potent α-glucosidase inhibitors based on xanthones: a closer look into the structure-activity correlations” (Eur J Med Chem, 2011).
The source made the active and inactive calls. The rule behind the calls is not given here.

Tests used:
[1] = Inhibition of yeast alpha-glucosidase using PNP glycoside as substrate after 30 mins by spectrophotometry; set-up: species or system Saccharomyces cerevisiae
Saccharomyces cerevisiae [2] = experiment: Ratio of 1,3,6-trihydroxy-9H-xanthen-9-one IC50 to compound IC50 for yeast alpha-glucosidase
Saccharomyces cerevisiae [3] = experiment: Non competitive inhibition of yeast alpha-glucosidase using PNP glycoside as substrate at 25.4 uM preincubated for 30 mins by Lineweaver-Burk plot analysis
[4] = Non competitive inhibition of yeast alpha-glucosidase using PNP glycoside as substrate preincubated for 30 mins by Lineweaver-Burk plot analysis; set-up: species or system Saccharomyces cerevisiae
Saccharomyces cerevisiae [5] = experiment: Ratio of 1,3-dihydroxy-9H-xanthen-9-one IC50 to compound IC50 for yeast alpha-glucosidase
Saccharomyces cerevisiae [6] = experiment: Ratio of 1,3-dihydroxy-7-methyl-9H-xanthen-9-one IC50 to compound IC50 for yeast alpha-glucosidase
Saccharomyces cerevisiae [7] = experiment: Non competitive inhibition of yeast alpha-glucosidase using PNP glycoside as substrate at 34.8 uM preincubated for 30 mins by Lineweaver-Burk plot analysis
Saccharomyces cerevisiae [8] = experiment: Non competitive inhibition of yeast alpha-glucosidase using PNP glycoside as substrate at 15.3 uM preincubated for 30 mins by Lineweaver-Burk plot analysis
Saccharomyces cerevisiae [9] = experiment: Ratio of 1,3,6,8-tetrahydroxy-9H-xanthen-9-one IC50 to compound IC50 for yeast alpha-glucosidase

SMILES | IC50 [1] [µM] | other results
O=c1c2ccccc2oc2c(-c3c(O)ccc4ccccc34)c(O)c(-c3c(O)ccc4ccccc34)c(O)c12 | 10.1 | –
O=c1c2ccc(O)cc2oc2cc(O)c(-c3c(O)ccc4ccccc34)c(O)c12 | 10.5 | Ratio IC50 (Saccharomyces cerevisiae [2]): 2
O=c1c2c(O)cc(O)cc2oc2cc(O)c(-c3c(O)ccc4ccc(O)cc34)c(O)c12 | 17.4 | inhibition (Saccharomyces cerevisiae [3]): Active; Ki [4]: 50.9 µM
O=c1c2ccc(O)cc2oc2cc(O)cc(O)c12 | 41.5 | –
Cc1ccc2oc3cc(O)cc(O)c3c(=O)c2c1 | > 200 | –
O=c1c2ccccc2oc2cc(O)c(-c3c(O)ccc4ccccc34)c(O)c12 | 47.7 | Ratio IC50 (Saccharomyces cerevisiae [5]): 2
Cc1ccc2oc3c(-c4c(O)ccc5ccccc45)c(O)c(-c4c(O)ccc5ccccc45)c(O)c3c(=O)c2c1 | 6.4 | –
OC[C@H]1NC[C@H](O)[C@@H](O)[C@@H]1O [DUVOGLUSTAT] | 40 | –
O=c1c2ccccc2oc2cc(O)c(-c3c(O)ccc4ccc(O)cc34)c(O)c12 | 75.4 | –
Cc1ccc2oc3cc(O)c(-c4c(O)ccc5ccccc45)c(O)c3c(=O)c2c1 | 26.5 | Ratio IC50 (Saccharomyces cerevisiae [6]): 2
O=c1c2c(O)cc(O)cc2oc2cc(O)cc(O)c12 | 17.2 | inhibition (Saccharomyces cerevisiae [7]): Active; Ki [4]: 62.8 µM
O=c1c2c(O)cc(O)cc2oc2cc(O)c(-c3c(O)ccc4ccccc34)c(O)c12 | 8.1 | inhibition (Saccharomyces cerevisiae [8]): Active; Ki [4]: 29.2 µM; Ratio IC50 (Saccharomyces cerevisiae [9]): 2
O=c1c2ccc(O)cc2oc2cc(O)c(-c3c(O)ccc4ccc(O)cc34)c(O)c12 | 47.6 | –
Cc1ccc2oc3cc(O)c(-c4c(O)ccc5ccc(O)cc45)c(O)c3c(=O)c2c1 | 112 | –
O=c1c2ccc(O)cc2oc2c(-c3c(O)ccc4ccccc34)c(O)c(-c3c(O)ccc4ccccc34)c(O)c12 | 6.2 | –
O=c1c2ccccc2oc2cc(O)cc(O)c12 | 161 | –
